Measured values as given in patent US9955691B2, “Macrocyclic picolinamides as fungicides” (DOW AGROSCIENCES LLC, priority 2014, dated 2018).
Like-named read-outs stand apart in the source and are kept apart here.

Key:
Rhyncosporium secalis = test: Fungicidal activity: Barley Scald (RHYNSE); assay type: in vivo; conditions: 100 ppm, 1 DP (1 Day Protectant)
Method: (§1) Technical grades of materials were dissolved in acetone, which were then mixed with nine volumes of water containing 110 ppm Triton X-100. The fungicide solutions were applied onto wheat seedlings using an automated booth sprayer to run-off. All sprayed plants were allowed to air dry prior to further handling. All fungicides were evaluated using the aforementioned method for their activity vs. all target diseases, unless stated otherwise. Wheat leaf blotch and brown rust activity were also evaluated using track spray applications, in which case the fungicides were formulated as EC formulations, containing 0.1% Trycol 5941 in the spray solutions. Wheat plants (variety Yuma) were grown from seed in a greenhouse in 50% mineral soil/50% soil-less Metro mix until the first leaf was fully emerged, with 7-10 seedlings per pot. These plants were inoculated with an aqueous spore suspension of Septoria tritici either prior to or after fungicide treatments. After inoculation the plants were kept in 100% relative humidity (one day in a dark dew chamber followed by two to three days in a lighted dew chamber at 20° C.) to permit spores to germinate and infect the leaf. The plants were then transferred to a greenhouse set at 20° C. for disease to develop. When disease symptoms were fully expressed on the 1st leaves of untreated plants, infection levels were assessed on a scale of 0 to 100 percent disease severity. Percent disease control was calculated using the ratio of disease severity on treated plants relative to untreated plants. Evaluation of Fungicidal Activity: Barley Scald (Rhyncosporium secalis; Bayer Code […]) Barley seedlings (variety Harrington) were propagated in soil-less Metro mix, with each pot having 8 to 12 plants, and used in the test when first leaf was fully emerged. Test plants were inoculated by an aqueous spore suspension of Rhyncosporium secalis 24 hr after fungicide treatments. After inoculation the plants were kept in a dew room at 20° C. with 100% relative humidity for 48 hr. The plants were then transferred to a greenhouse set at 20° C. for disease to develop. Fungicide formulation, application and disease assessment on the sprayed leaves followed the procedures as described in the Example A.

[1] = test system: Blumeria graminis f. sp. hordei; test: Fungicidal activity: Barley Powdery Mildew (ERYSGH); assay type: in vivo; conditions: 100 ppm, 1 DP (1 Day Protectant)
Method: as §1, with “Powdery Mildew (Blumeria graminis f. Sp. hordei; Synonym: Erysiphe graminis f. Sp. hordei;” for “Scald (Rhyncosporium secalis;”, “dusting with infected stock plants” for “an aqueous spore suspension of Rhyncosporium secalis”, “in” for “in a dew room at 20° C. with 100% relative humidity for 48 hr. The plants were then transferred to”

[2] = test system: Mycosphaerella graminicola; Anamorph: Septoria tritici; test: Fungicidal activity: Leaf Blotch of Wheat (SEPTTR); assay type: in vivo; conditions: Zymoseptoria tritici, wheat leaf blotch; for pest or weed control at 121.5 g/ha: Low Volume (121.5 g/H); for pest or weed control at 100 µg/mL: High Volume (100 ppm)
Method in brief: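 Compounds were dissolved in acetone, diluted with nine volumes of water containing 110 ppm Triton X-100, and sprayed to run-off on first-leaf Yuma wheat seedlings inoculated with Septoria tritici spores before or after treatment. Plants were held in a dew chamber, then a 20° C. greenhouse. Percent control was derived from disease severity relative to untreated plants.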

[3] = 24 h, 1 Day Protectant, read-out: SEPTTR 1 DP disease control
[4] = 72 h, 3 Day Curative, read-out: SEPTTR 3 DC disease control

Row | SMILES | RHYNSE disease control rating (Rhyncosporium secalis) | ERYSGH disease control rating [1] | pest or weed control at 121.5 g/ha [2, 3] | pest or weed control at 121.5 g/ha [2, 4] | pest or weed control at 100 µg/mL [2, 3] | pest or weed control at 100 µg/mL [2, 4] | melting point
1 | CCCC[C@@H]1[C@@H](Cc2ccc(C(F)(F)F)cc2)COC[C@H](NC(=O)c2nccc(OC)c2OCOC(C)=O)C(=O)O[C@H]1C [compound 16] | A (>70) | A (>70) | > 70% | > 70% |  |  | 
2 | COc1ccnc(C(=O)N[C@H]2COC[C@H](c3ccccc3)[C@@H](c3ccccc3)[C@H](C)OC2=O)c1OCOC(C)=O [compound 7] |  | A (>70) | > 70% | > 70% | > 70% | > 70% | 59 to 64 °C
3 | COc1ccnc(C(=O)N[C@H]2COC[C@H](Cc3ccccc3)[C@@H](Cc3ccccc3)[C@H](C)OC2=O)c1OC(C)=O [compound 27] | A (>70) | B (≤70) | > 70% | > 70% |  |  | 67 to 71 °C
4 | COc1ccnc(C(=O)N[C@H]2COC[C@H](CC3CC3)[C@@H](c3ccccc3)[C@H](C)OC2=O)c1OC(C)=O [compound 100] | B (≤70) | A (>70) | > 70% | > 70% |  |  | 
5 | COc1ccnc(C(=O)N[C@H]2COC[C@H](Cc3ccccc3)[C@@H](Cc3ccccc3)[C@H](C)OC2=O)c1OCOC(C)=O [Cmpd. 3, ((2-(((3S,7R,8R,9S)-7,8-dibenzyl-9-methyl-2-oxo-1,5-dioxonan-3-yl)carbamoyl)-4-methoxypyridin-3-yl)oxy)methyl acetate] |  | A (>70) | > 70% | > 70% | > 70% | > 70% | 56 to 60 °C
6 | CCCC[C@@H]1[C@@H](Cc2ccccc2)COC[C@H](NC(=O)c2nccc(OC)c2OCOC(=O)C(C)C)C(=O)O[C@H]1C [compound 1] | A (>70) | A (>70) | > 70% | > 70% | > 70% | > 70% | 
